These results are taken from patent publication EP1215212A2, “Dihydro derivatives of LL-E33288 antibiotics” (priority 1987, dated 1988).

Format in all cases: cell-based
The test system of one test is E. coli-lambda lysogen. In words: Biochemical Induction Assay (BIA), modified. The note with it: ability to directly or indirectly initiate DNA damage. The source says: The LL-E33288 antibiotics are active against gram-positive and gram-negative bacteria. Each of the components were also found to be active in a modification of the Biochemical Induction Assay [Elespuru, R. and Yarmolinsky, M., Environmental Mutagenesis, 1, 65-78 […]], a test which specifically measures the ability of an agent to directly or indirectly initiate DNA damage. In this assay, both LL-E33288γ1-I and LL-E33288δ1-I were active at concentrations lower than 1x10^-6 mcg/ml.
This pseudoaglycone is also active as an antitumor agent as determined in the Biochemical Induction Assay (BIA), a bacterial assay system which specifically measures the ability of an agent to directly or indirectly initiate DNA damage. The indicator organism for this test is an E. coli-lambda lysogen, genetically constructed such that a DNA damaging event results in the expression of the gene for the enzyme β-galactosidase. This enzyme can be determined qualitatively or quantitatively by biochemical assay as an indication that DNA damage has occurred.
A modified version of the quantitative liquid BIA disclosed by Elespuru, R. and Yarmolinsky, M., Environmental Mutagenesis, 1, 65 (1979) was used to evaluate these compounds.

In test [1] the test system is Staphylococcus epidermidis. In words: Agar dilution MIC (Table II). The note with it: inoculum 1 to 5 x 10^4 CFU, about 18 hours, 35°C. On the procedure:
(§1) The in vitro antibacterial activity of dihydro LL-E33288gamma l-I was determined against a spectrum of gram-positive and gram-negative bacteria by a standard agar dilution method. Mueller-Hinton agar containing two-fold decreasing concentrations of the antibiotics was poured into petri plates. The agar surfaces were inoculated with 1 to 5 x 10^4 colony forming units of bacteria by means of a Steers replicating device.
For orientation: In agar dilution the substance is mixed into plates at graded concentrations.

Another test deals with Citrobacter diversus. In words: Agar dilution MIC (Table II). The note with it: Citrobacter diversus K-82-24; inoculum 1 to 5 x 10^4 CFU; about 18 hours, 35°C. On the procedure:
as §1

A further test relates to Acinetobacter sp. In words: Agar dilution MIC (Table II). The conditions noted are these: inoculum 1 to 5 x 10^4 CFU, about 18 hours, 35°C. The method, then: as §1
The subject of a further test is Escherichia coli. Put plainly: Agar dilution MIC (Table II). The conditions noted are these: inoculum 1 to 5 x 10^4 CFU, about 18 hours, 35°C. The method, then: as §1
A further test relates to Pseudomonas aeruginosa. In words: Agar dilution MIC (Table II). The conditions noted are these: inoculum 1 to 5 x 10^4 CFU, about 18 hours, 35°C. On the procedure: as §1
The subject of a further test is Klebsiella pneumoniae. In words: Agar dilution MIC (Table II). The conditions noted are these: inoculum 1 to 5 x 10^4 CFU, about 18 hours, 35°C. The method, then: as §1
A further test deals with Serratia marcescens. Put plainly: Agar dilution MIC (Table II). The conditions noted are these: inoculum 1 to 5 x 10^4 CFU, about 18 hours, 35°C. The method, then: as §1
In a further test the test system is Citrobacter freundii. Put plainly: Agar dilution MIC (Table II). The note with it: Citrobacter freundii IO 83-13; inoculum 1 to 5 x 10^4 CFU; about 18 hours, 35°C. On the procedure: as §1
Another test has as its system Enterobacter aerogenes. Put plainly: Agar dilution MIC (Table II). The conditions noted are these: Enterobacter aerogenes IO 83-44; inoculum 1 to 5 x 10^4 CFU; about 18 hours, 35°C. On the procedure:
as §1

The next test relates to Morganella morganii. In words: Agar dilution MIC (Table II). The note with it: Morganella morganii IO 83-18; inoculum 1 to 5 x 10^4 CFU; about 18 hours, 35°C. The method, then:
as §1

In a further test the test system is Streptococcus faecalis. In words: Agar dilution MIC (Table II). The conditions noted are these: inoculum 1 to 5 x 10^4 CFU, about 18 hours, 35°C. On the procedure:
as §1

The test system of a further test is Providencia stuartii. In words: Agar dilution MIC (Table II). The conditions noted are these: Providencia stuartii CMC 83-82; inoculum 1 to 5 x 10^4 CFU; about 18 hours, 35°C. The method, then:
as §1

In a further test the test system is Staphylococcus aureus. Put plainly: Agar dilution MIC (Table II). The note with it: inoculum 1 to 5 x 10^4 CFU, about 18 hours, 35°C. The method, then: as §1
In a further test the test system is Enterobacter cloacae. Put plainly: Agar dilution MIC (Table II). The note with it: Enterobacter cloacae CMC 84-4; inoculum 1 to 5 x 10^4 CFU; about 18 hours, 35°C. The method, then:
as §1

For the molecule `CCN[C@H]1CO[C@@H](O[C@H]2[C@H](O[C@H]3C#CC=CC#C[C@@]4(O)CC(=O)C(NC(=O)OC)=C3/C4=C\CSSSC)O[C@H](C)[C@@H](NO[C@H]3C[C@H](O)[C@H](SC(=O)c4c(C)c(I)c(O[C@@H]5O[C@@H](C)[C@H](O)[C@@H](OC)[C@H]5O)c(OC)c4OC)[C@@H](C)O3)[C@@H]2O)C[C@@H]1OC` (stereo in doubt) [LL-E33288γ1-I], the active at concentrations result with E. coli-lambda lysogen is “lower than 1x10^-6 mcg/ml”.

As to “Dihydro-LL-E33288γ1-I [Dihydro-LL-E33288gamma1-I]”, the “Minimal Inhibitory Concentration” value is 0.015 µg/mL in test [1] (Staphylococcus epidermidis ATCC 12228); 0.015 µg/mL in test [1] (Staphylococcus epidermidis CMC 83-133); 2 µg/mL in the test with Citrobacter diversus; 2 µg/mL in the test with Acinetobacter sp (Acinetobacter sp CMC 83-89); above 2 µg/mL in the test on Acinetobacter sp (Acinetobacter sp IO 83-49); 1 µg/mL with Escherichia coli (Escherichia coli ATCC 25922). The “Minimal Inhibitory Concentration” value in the test on Escherichia coli (Escherichia coli CMC 84-11) was 2 µg/mL; with Escherichia coli (Escherichia coli No. 311(MP)) it was 2 µg/mL; in the test on Pseudomonas aeruginosa (Pseudomonas aeruginosa 12-4-4(MP)), 2 µg/mL; in the test on Pseudomonas aeruginosa (Pseudomonas aeruginosa ATCC 27853), 2 µg/mL; in the test on Klebsiella pneumoniae (Klebsiella pneumoniae AD(MP)) it was 1 µg/mL; in the test with Klebsiella pneumoniae (Klebsiella pneumoniae CMC 84-5), above 2 µg/mL. Besides, the “Minimal Inhibitory Concentration” value with Serratia marcescens (Serratia marcescens CMC 83-27) amounted to 2 µg/mL; in the test with Serratia marcescens (Serratia marcescens F-35(MP)), 2 µg/mL; in the test with Citrobacter freundii it was 2 µg/mL; with Enterobacter aerogenes, 2 µg/mL; in the test with Morganella morganii it was 1 µg/mL; in the test on Streptococcus faecalis (Streptococcus faecalis ATCC 29212) it was 0.001 µg/mL. Also, the “Minimal Inhibitory Concentration” value turned out to be 0.015 µg/mL with Streptococcus faecalis (Streptococcus faecalis CMC 83-53); 0.015 µg/mL with Streptococcus faecalis (Streptococcus faecalis IO 83-28); 2 µg/mL in the test with Providencia stuartii; 0.06 µg/mL in the test on Staphylococcus aureus (Staphylococcus aureus ATCC 25923); 0.06 µg/mL in the test with Staphylococcus aureus (Staphylococcus aureus SSC 82-20); 0.004 µg/mL with Staphylococcus aureus (Staphylococcus aureus SSC 82-21). Further, the “Minimal Inhibitory Concentration” value is 0.008 µg/mL in the test on Staphylococcus aureus (Staphylococcus aureus SSC 82-23); 0.002 µg/mL in the test with Staphylococcus aureus (Staphylococcus aureus SSC 82-24); 0.06 µg/mL in the test with Staphylococcus aureus (Staphylococcus aureus SSC 82-54); 0.004 µg/mL with Staphylococcus aureus (Staphylococcus aureus Smith(MP)); 2 µg/mL in the test on Enterobacter cloacae.
